{"source": "paper PMC2746040", "about": "(Synapse (New York, N.Y.), 2009)", "key": {"D2L-YFP": {"tested_on": "D2L-YFP", "experiment": "Agonist-induced receptor internalization assessed via confocal microscopy", "type": "cell-based", "details": "15 min, room temperature, 50 nM MNPA or 10 μM dopamine"}, "D2L DAR [1]": {"biological_target": "T1, D2L DAR (Rattus norvegicus, UniProt P61169)", "T1 sequence (P61169 whole entry)": "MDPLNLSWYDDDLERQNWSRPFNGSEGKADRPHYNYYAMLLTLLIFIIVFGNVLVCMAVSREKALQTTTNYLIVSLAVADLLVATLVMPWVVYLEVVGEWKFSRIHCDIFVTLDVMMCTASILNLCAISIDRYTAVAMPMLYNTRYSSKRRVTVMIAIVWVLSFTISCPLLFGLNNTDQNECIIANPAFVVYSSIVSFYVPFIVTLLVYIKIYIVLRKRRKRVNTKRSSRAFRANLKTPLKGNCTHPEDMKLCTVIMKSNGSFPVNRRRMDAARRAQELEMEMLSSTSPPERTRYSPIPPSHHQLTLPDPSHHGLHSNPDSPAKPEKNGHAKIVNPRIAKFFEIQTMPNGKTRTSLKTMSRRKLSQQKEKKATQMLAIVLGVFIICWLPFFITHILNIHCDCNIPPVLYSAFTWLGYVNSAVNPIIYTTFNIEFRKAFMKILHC", "type": "binding", "details": "intact cells; for hill coefficient: [3H]sulpiride competition"}, "D2L DAR [2]": {"biological_target": "T1, D2L DAR", "type": "binding"}, "D3 DAR [3]": {"biological_target": "T2, D3 DAR (Rattus norvegicus, UniProt P19020)", "T2 sequence (P19020 whole entry)": "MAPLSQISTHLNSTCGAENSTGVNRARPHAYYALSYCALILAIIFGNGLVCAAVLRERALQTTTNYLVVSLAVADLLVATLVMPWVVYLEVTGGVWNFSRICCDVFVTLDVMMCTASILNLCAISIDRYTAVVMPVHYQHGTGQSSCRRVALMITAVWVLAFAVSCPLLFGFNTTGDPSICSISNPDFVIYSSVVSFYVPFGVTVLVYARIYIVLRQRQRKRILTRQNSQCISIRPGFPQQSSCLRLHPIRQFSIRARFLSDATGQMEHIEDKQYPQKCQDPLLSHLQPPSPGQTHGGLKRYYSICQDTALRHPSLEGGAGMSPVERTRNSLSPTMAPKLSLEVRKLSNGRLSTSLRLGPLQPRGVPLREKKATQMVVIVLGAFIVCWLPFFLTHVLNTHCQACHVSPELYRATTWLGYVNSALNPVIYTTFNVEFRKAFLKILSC", "type": "cell-based"}, "D3 DAR [4]": {"biological_target": "T2, D3 DAR", "type": "binding", "details": "read-out: KiL"}, "D2L DAR [5]": {"biological_target": "T1, D2L DAR", "type": "cell-based", "details": "for % Maximum inhibition: 3 μM forskolin-stimulated cAMP accumulation, 10 min 37°C, HEK293T"}, "D2L DAR [6]": {"biological_target": "T1, D2L DAR", "type": "cell-based", "details": "50 nM MNPA or 10 μM dopamine"}, "D2L DAR [7]": {"biological_target": "T1, D2L DAR", "type": "binding", "details": "for % decrease of Bmax: by Gpp(NH)p 100 μM"}}, "note": "Several values for one entry are separate records, joined by “and”; a condition that tells them apart may be missing. Equal values may be shown once. Read-outs that look alike come from different tables or passages of the source.", "data": [{"smiles": "NCCc1ccc(O)c(O)c1", "note": "[Dopamine, dopamine, reference compound]", "values": [{"measurement": "internalization of the D2-YFP receptor (confocal images)", "setting": "D2L-YFP", "result": "some of the D2-YFP fluorescence is apparent in punctuated, vesicle-like structures in the cytosol"}]}, {"smiles": "CCCN1CCc2cc(OC)cc3c2[C@H]1Cc1ccc(O)c(O)c1-3", "note": "[MNPA, (R)-2-^11CH3O-N-n-propylnorapomorphine]", "values": [{"measurement": "Ki", "setting": "D2L DAR [1]; [3H]sulpiride ~2 nM, 1 hour 37°C, single site", "result": "109 ± 52", "unit": "nM"}, {"measurement": "Ki", "setting": "D2L DAR [2]; read-out: KiH, high affinity state, absence of GTP, [3H]methylspiperone ~0.2 nM", "result": "0.09 ± 0.02", "unit": "nM"}, {"measurement": "Ki", "setting": "D2L DAR [2]; read-out: KiL, + GTP 100 μM, single site", "result": "13.7 ± 3.3", "unit": "nM"}, {"measurement": "Ki", "setting": "D2L DAR [2]; read-out: KiL, low affinity state, absence of GTP", "result": "16.9 ± 3.2", "unit": "nM"}, {"measurement": "IC50", "setting": "D3 DAR [3]; 3 μM forskolin, D3 DAR + AC-V, no antagonist", "result": 3.43, "unit": "nM"}, {"measurement": "EC50", "setting": "D3 DAR [3]; read-out: EC50 value for inhibiting D3 DAR activity", "result": 3.4, "unit": "nM"}, {"measurement": "Ki", "setting": "D3 DAR [4]; + GTP 100 μM (dopamine: one-site fit)", "result": "1.09 ± 1.7", "unit": "nM"}, {"measurement": "Ki", "setting": "D3 DAR [4]; absence of GTP (dopamine: one-site fit)", "result": "1.02 ± 0.2", "unit": "nM"}, {"measurement": "IC50", "setting": "D2L DAR [5]; inhibition of forskolin-stimulated cAMP accumulation, no antagonist", "result": "0.33 ± 0.26", "unit": "nM"}]}, {"smiles": "CCCN1CCc2cc(O[11CH3])cc3c2[C@H]1Cc1ccc(O)c(O)c1-3", "note": "[MNPA, (R)-2-^11CH3O-N-n-propylnorapomorphine]", "values": [{"measurement": "hill coefficient", "setting": "D2L DAR [1]", "result": "1.7 ± 0.2"}, {"measurement": "fold lower Ki values than dopamine", "setting": "D2L DAR [2]", "result": "200-1000 fold"}, {"measurement": "% RH (percentage of receptors configured in the GTP sensitive high-affinity state)", "setting": "D2L DAR [2]; absence of GTP", "result": "24 ± 1", "unit": "%"}, {"measurement": "internalization of the D2-YFP receptor (confocal images)", "setting": "D2L-YFP", "result": "promotes internalization of the D2-YFP receptor"}, {"measurement": "% decrease of Bmax", "setting": "D2L DAR [6]; Arrestin2 co-transfection", "result": "53 ± 2", "unit": "%"}, {"measurement": "Bmax of [3H]sulpiride after agonist pretreatment", "setting": "D2L DAR [6]; Arrestin2 co-transfection", "result": "3.00 ± 0.33", "unit": "fmol/10^5cells"}, {"measurement": "% decrease of Bmax", "setting": "D2L DAR [6]; Arrestin3 co-transfection", "result": "68 ± 8", "unit": "%"}, {"measurement": "Bmax of [3H]sulpiride after agonist pretreatment", "setting": "D2L DAR [6]; Arrestin3 co-transfection", "result": "2.75 ± 0.27", "unit": "fmol/10^5cells"}, {"measurement": "% decrease of Bmax", "setting": "D2L DAR [6]; pcDNA transfection", "result": "23% and 23 ± 7%"}, {"measurement": "Bmax of [3H]sulpiride after agonist pretreatment", "setting": "D2L DAR [6]; pcDNA transfection", "result": "7.25 ± 0.53", "unit": "fmol/10^5cells"}, {"measurement": "fold higher EC50 at D3 DAR compared to D2 DAR", "setting": "D3 DAR [3]", "result": "~10", "unit": "fold"}, {"measurement": "fold reduction in potency by (+)-butaclamol", "setting": "D3 DAR [3]; 10 μM (+)butaclamol", "result": 100, "unit": "fold"}, {"measurement": "agonist character at the D3 DAR", "setting": "D3 DAR [3]; cAMP accumulation", "result": "full agonist"}, {"measurement": "potency relative to dopamine at the D3 DAR", "setting": "D3 DAR [3]; cAMP accumulation", "result": "slightly less potent than dopamine"}, {"measurement": "inhibition of forskolin stimulated cAMP accumulation", "setting": "D3 DAR [3]; maximal extent", "result": "42-43%"}, {"measurement": "fold increase of Kd by Gpp(NH)p", "setting": "D2L DAR [7]; Gpp(NH)p 100 μM", "result": "~2", "unit": "fold"}, {"measurement": "% decrease of Bmax", "setting": "D2L DAR [7]", "result": "21 ± 9", "unit": "%"}, {"measurement": "% decrease of Bmax", "setting": "D2L DAR [7]; listed as [^3H]MNPA", "result": "17-21%"}, {"measurement": "% Maximum inhibition", "setting": "D2L DAR [5]", "result": "82 ± 3", "unit": "%"}, {"measurement": "agonist character at the D2L DAR", "setting": "D2L DAR [5]; cAMP accumulation", "result": "potent and full agonist"}]}, {"smiles": "CN1CN(c2ccccc2)C2(CCN(CCCC(=O)c3ccc(F)cc3)CC2)C1=O", "note": "[MSP, methylspiperone, reference compound]", "values": [{"measurement": "effect of Gpp(NH)p on binding", "setting": "D2L DAR [7]; Gpp(NH)p 100 μM", "result": "no effect"}]}, {"smiles": "CCCN1CCc2cccc3c2[C@H]1Cc1ccc(O)c(O)c1-3", "note": "[NPA, N-n-propylnorapomorphine, reference compound]", "values": [{"measurement": "hill coefficient", "setting": "D2L DAR [1]", "result": "1.5 ± 0.2"}, {"measurement": "% RH (percentage of receptors configured in the GTP sensitive high-affinity state)", "setting": "D2L DAR [2]; absence of GTP", "result": "24 ± 1", "unit": "%"}, {"measurement": "% decrease of Bmax", "setting": "D2L DAR [7]", "result": "17 ± 5", "unit": "%"}, {"measurement": "% decrease of Bmax", "setting": "D2L DAR [7]; listed as [^3H]NPA", "result": "17-21%"}, {"measurement": "% Maximum inhibition", "setting": "D2L DAR [5]", "result": "72 ± 8", "unit": "%"}]}]}
